Values quoted from earlier work in patent publication US7354906B2, “Composition of anti-HIV drugs and anti-cortisol compounds and method for decreasing the side effects of anti-HIV drugs in a human” (Samaritan Pharmaceuticals, Inc., priority 1999, dated 2008).

What was measured:
[1] = AZT recipients
[2] = 50 mg per day for 6 months, age advanced humans
[3] = human, 20 mg/kg/day, four weeks, no increase in caloric intake
[4] = hydrochloride salt

Compound: Cc1cn([C@H]2C[C@H](N=[N+]=[N-])[C@@H](CO)O2)c(=O)[nH]c1=O [AZT, 3′-azido-3′-deoxythymidine]
- recipients who develop anemia [1]: 24%

Compound: C[C@]12CC[C@H](O)CC1=CC[C@@H]1[C@@H]2CC[C@]2(C)C(=O)CC[C@@H]12 [DHEA, Dehydroepiandrosterone]
- bioavailable IGF-1 [2]: induced an increase
- safety of DHEA dosages (dosages as high as 1.6 gm/day): safe and without side effects
- mean serum total cholesterol levels (men, 1600 mg/day for 28 days): fall
- mean percent body fat decrease (men, 1600 mg/day for 28 days, no change in weight): 31%

Compound: CC(C)Oc1ccc2c(=O)c(-c3ccccc3)coc2c1 [Ipriflavone, 7-isoproxy-isoflavone]
- increase in body weight [3]: about 5 pounds

Compound: CCN(CC)CCOC(=O)c1ccc(N)cc1.Cl [Procaine hydrochloride, 2-diethylaminoethyl p-aminobenzoate hydrochloride]
- solubility [4]: soluble in water and alcohol, but much less soluble in organic solvents
